The structures appear in SMILES notation. pIC50: −log10 of the molar value.

Results on four molecules are retold here after patent EP0497299A1, “Decarestrictine and related compounds, process for their preparation and use” (HOECHST AKTIENGESELLSCHAFT, priority 1991, dated 1992).

This assay concerns Cholesterinbiosynthese. The assay can be described thus: Inhibition of cholesterol biosynthesis from 14C-acetate in HEP-G2 liver cell culture. The conditions noted are these: Homo sapiens, HepG2, 3 h, HEP-G2-Zellen; for pIC50: (¹⁴C)Natriumacetat, standard preparations, read-out: IC₅₀; for inhibition at 0.01 µM: Konzentration von 10⁻⁸ mol/l, read-out: Hemmung der Cholesterinbiosynthese. Type of assay: cell-based. The text has this: 2. Die biologische Wirksamkeit der Verbindungen als Inhibitor an der Cholesterinbiosynthese läßt sich in vitro in Leberzellkulturen nachweisen.
Monolayer von HEP-G2-Zellen in lipoproteinfreiem Nährmedium werden mit entsprechenden Konzentrationen der zu prüfenden Substanzen der allgemeinen Formel I eine Stunde vorinkubiert. Nach Zugabe der ¹⁴C-markierten Biosynthesevorstufe (¹⁴C)Natriumacetat wird die Inkubation für 3 Stunden fortgesetzt. Danach wird ein Teil der Zellen alkalisch verseift, bei vorheriger Zugabe eines internen Standards von ³H-Cholesterin. Die Lipide der verseiften Zellen werden mit einem Gemisch aus Chloroform-Methanol extrahiert. Dieses Lipidgemisch wird nach Zusatz von Trägercholesterin präparativ dünnschichtchromatographisch aufgetrennt, die Cholesterinbande nach Anfärbung isoliert und die aus dem ¹⁴C-Precursor gebildete Menge ¹⁴C-Cholesterin szintigraphisch bestimmt. In einem aliquoten Teil der Zellen wurde Zellprotein bestimmt, so daß die in der Zelleinheit pro mg Zellprotein aus ¹⁴C-Präkusor gebildete Menge ¹⁴C-Cholesterins berechnet werden kann. Zum Vergleich für die Hemmwirkung eines zugesetzten Prüfpräparates dient die Kontrolle, so daß direkt die Hemmung der Cholesterinbiosynthese bei einer bestimmten molaren Konzentration des Prüfpräparates im Medium angegeben werden kann. In aliquoten Anteilen der Zellkultur wird die Intaktheit der Zellkultur und die fehlende Zellschädigung durch Präparateeinwirkung morphologisch (Lichtmikroskopie) beurteilt und biochemisch durch Bestimmung der Lactat-Dehydrogenase-Abgabe ins Inkubationsmedium gemessen.

Turning to `C[C@H](CCCC(C)(C)O)[C@H]1CC[C@H]2[C@@H]3CC=C4C[C@@H](O)CC[C@]4(C)[C@H]3CC[C@]12C` [25-Hydroxycholesterin], the pIC50 was 6.64.

Turning to `COC(=O)CC1CC(O)C(C(O)CC(C)O)O1` (stereo not shown) [Formel 1.4], the inhibition at 0.01 µM amounted to 38%.

For the molecule `COC(=O)C=C1CC(O)C(C(O)CC(C)O)O1` (stereo not shown) [Formel 1.5], the inhibition at 0.01 µM is 60%.

As for `CC[C@H](C)C(=O)O[C@H]1C[C@@H](C)C=C2C=C[C@H](C)[C@H](CC[C@@H]3C[C@@H](O)CC(=O)O3)[C@H]21` [Lovastatin], the pIC50 is 7.64.
